Drawing on patent US20240368135A1 (VERTEX PHARMACEUTICALS INCORPORATED, priority 2021, published 2024), this text covers IC50 for 24 molecules.

Molecules are shown by their SMILES. pIC50: −log10 of the molar value.

Sequence of human NaV 1.8 (Q9Y5Y9 126-399 limits assumed): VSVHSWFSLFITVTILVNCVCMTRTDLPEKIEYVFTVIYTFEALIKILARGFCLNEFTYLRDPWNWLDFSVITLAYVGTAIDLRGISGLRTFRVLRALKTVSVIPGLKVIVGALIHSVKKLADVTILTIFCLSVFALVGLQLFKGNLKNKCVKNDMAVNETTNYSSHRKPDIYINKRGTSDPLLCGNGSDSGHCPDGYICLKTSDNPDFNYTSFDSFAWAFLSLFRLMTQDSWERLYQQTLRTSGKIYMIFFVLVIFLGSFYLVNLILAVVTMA
Sequence of human NaV 1.8 (Q9Y5Y9 660-890 limits assumed): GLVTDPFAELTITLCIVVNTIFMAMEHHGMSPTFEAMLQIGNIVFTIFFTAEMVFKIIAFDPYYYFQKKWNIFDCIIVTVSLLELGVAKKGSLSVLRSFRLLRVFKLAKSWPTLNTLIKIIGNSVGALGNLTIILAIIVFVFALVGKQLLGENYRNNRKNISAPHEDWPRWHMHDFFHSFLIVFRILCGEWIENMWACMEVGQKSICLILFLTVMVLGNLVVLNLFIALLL
Sequence of human NaV 1.8 (Q9Y5Y9 1148-1722 limits assumed): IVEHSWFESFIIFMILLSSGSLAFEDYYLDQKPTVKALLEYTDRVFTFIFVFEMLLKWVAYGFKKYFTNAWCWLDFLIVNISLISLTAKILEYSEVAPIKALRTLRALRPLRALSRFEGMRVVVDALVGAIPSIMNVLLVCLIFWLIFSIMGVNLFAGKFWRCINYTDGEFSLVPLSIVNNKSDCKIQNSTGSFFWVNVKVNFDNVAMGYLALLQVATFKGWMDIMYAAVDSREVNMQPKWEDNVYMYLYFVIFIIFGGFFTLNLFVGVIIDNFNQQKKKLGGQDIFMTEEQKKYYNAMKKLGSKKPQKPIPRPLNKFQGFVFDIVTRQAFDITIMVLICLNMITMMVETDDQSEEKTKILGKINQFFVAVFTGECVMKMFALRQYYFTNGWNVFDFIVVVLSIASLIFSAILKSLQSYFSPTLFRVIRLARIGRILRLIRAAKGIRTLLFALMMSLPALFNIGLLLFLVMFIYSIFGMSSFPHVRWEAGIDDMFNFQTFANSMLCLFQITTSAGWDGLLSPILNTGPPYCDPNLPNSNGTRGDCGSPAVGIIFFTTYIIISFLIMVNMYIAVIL

The first assay addresses human NaV 1.8 (Homo sapiens, UniProt Q9Y5Y9). The assay can be described thus: E-VIPR assay detecting and measuring NaV inhibition properties. It counts as cell-based. As to conditions: HEK cells expressing truncated human NaV 1.8; in the presence of human serum (compound numbers followed by *); read-out: IC50 in the E-VIPR Assay, performed in the presence of human serum. In a few lines: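 HEK cells expressing truncated, fully active human NaV1.8, with KIR2.1 BacMam co-transduction, were loaded with CC2-DMPE/DiSBAC6(3) voltage-sensing dyes for 20 min at room temperature. Compounds were tested in 11-point 3-fold dilutions (300 nM top final), optionally with 25% human serum, under electrical stimulation with FRET read-out.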
Consider `CCOc1c([C@H]2C[C@@](C)(C(F)(F)F)O[C@@H]2C(=O)Nc2ccnc(C(O)CO)c2)ccc(F)c1F` (single isomer, unassigned) [Compound 709], for which the pIC50 was not above 6.00.

As for `COc1cc(F)ccc1[C@@H]1C[C@](C)(C(F)(F)F)O[C@H]1C(=O)Nc1ccnc(S(C)(=O)=O)c1` (stereo in doubt) [Compound 714, rel-(2R,3S,5R)-3-(4-fluoro-2-methoxyphenyl)-5-methyl-N-(2-(methylsulfonyl)pyridin-4-yl)-5-(trifluoromethyl)tetrahydrofuran-2-carboxamide], the pIC50 was 6.00 to 7.00.

Still in this assay, the particulars now being: HEK cells expressing truncated human NaV 1.8; no human serum; read-out: IC50 in the E-VIPR Assay.
For the molecule `COc1c([C@H]2[C@H](C(=O)NCCc3c(C)noc3C)O[C@@](C)(C(F)(F)F)[C@H]2C)ccc(F)c1F` [Compound 287, (2R,3S,4S,5R)-3-(3,4-difluoro-2-methoxyphenyl)-N-(2-(3,5-dimethylisoxazol-4-yl)ethyl)-4,5-dimethyl-5-(trifluoromethyl)tetrahydrofuran-2-carboxamide], the pIC50 was not above 6.00. Regarding `COc1ncc(NC(=O)[C@@H]2O[C@@](C)(C(F)(F)F)[C@@H](C)[C@H]2c2ccc(F)c(F)c2OCCO)cn1` [Compound 550, (2R,3S,4S,5R)-3-(3,4-difluoro-2-(2-hydroxyethoxy)phenyl)-N-(2-methoxypyrimidin-5-yl)-4,5-dimethyl-5-(trifluoromethyl)tetrahydrofuran-2-carboxamide], the pIC50 is 6.00 to 7.00. The same measure, in the same setting: the same measure for `Cc1nocc1NC(=O)[C@@H]1O[C@@](C)(C(F)(F)F)[C@@H](C)[C@H]1c1ccc(F)c(F)c1OCCN1CC(OC(F)F)C1` [Compound 628, (2R,3S,4S,5R)-3-(2-(2-(3-(difluoromethoxy)azetidin-1-yl)ethoxy)-3,4-difluorophenyl)-4,5-dimethyl-N-(3-methylisoxazol-4-yl)-5-(trifluoromethyl)tetrahydrofuran-2-carboxamide]: 7.00 to 8.00; for `COc1c([C@H]2[C@H](C(=O)Nc3cnc4c(c3)OCC4O)O[C@@](C)(C(F)(F)F)[C@H]2C)ccc(F)c1F` (single isomer, unassigned) [Compound 408, rel-(2R*,3S*,4S*,5R*)-3-(3,4-difluoro-2-methoxyphenyl)-N-(3-hydroxy-2,3-dihydrofuro[3,2-b]pyridin-6-yl)-4,5-dimethyl-5-(trifluoromethyl)-tetrahydrofuran-2-carboxamide]: 7.00 to 8.00. Regarding `COc1c([C@H]2[C@H](C(=O)Nc3ccc(C(F)CO)nc3)O[C@@](C)(C(F)(F)F)[C@H]2C)ccc(F)c1F` (single isomer, unassigned) [Compound 438, rel-(2R*,3S*,4S*,5R*)-3-(3,4-difluoro-2-methoxyphenyl)-N-(6-(1-fluoro-2-hydroxyethyl)pyridin-3-yl)-4,5-dimethyl-5-(trifluoromethyl)tetrahydrofuran-2-carboxamide], the pIC50 was 7.00 to 8.00. Same read-out and setting: the result for `CCOc1c([C@H]2[C@H](C(=O)Nc3ccnc(S(C)(=N)=O)c3)O[C@@](C)(C(F)(F)F)[C@H]2C)ccc(F)c1F` (single isomer, unassigned) [Compound 111] reads more than 8.00. On to `COc1c([C@H]2[C@H](C(=O)Nc3ccnc(N4C(=O)[C@@H]5C[C@H]4CN5C)c3)O[C@@](C)(C(F)(F)F)[C@H]2C)ccc(F)c1F` [Compound 489, (2R,3S,4S,5R)-3-(3,4-difluoro-2-methoxyphenyl)-4,5-dimethyl-N-(2-((1S,4S)-5-methyl-3-oxo-2,5-diazabicyclo[2.2.1]heptan-2-yl)pyridin-4-yl)-5-(trifluoromethyl)tetrahydrofuran-2-carboxamide], for which the pIC50 was 7.00 to 8.00.

Consider `CNC(=O)c1ccc(NC(=O)[C@@H]2O[C@@](C)(C(F)(F)F)[C@@H](C)[C@H]2c2ccc(F)c(C(F)F)c2OC)cn1` (stereo in doubt) [Compound 170, rel-5-((2R,3S,4S,5R)-3-(3-(difluoromethyl)-4-fluoro-2-methoxyphenyl)-4,5-dimethyl-5-(trifluoromethyl)tetrahydrofuran-2-carboxamido)-N-methylpicolinamide], for which the pIC50 was more than 8.00. On the same count and under the same terms, the same measure for `Cc1nn(C(F)F)cc1NC(=O)[C@@H]1O[C@@](C)(C(F)(F)F)[C@@H](C)[C@H]1c1ccc(F)c(F)c1C(C)O` (relative stereo) [Compound 680, rac-(2R*,3S*,4S*,5R*)-3-(3,4-difluoro-2-(1-hydroxyethyl)phenyl)-N-(1-(difluoromethyl)-3-methyl-1H-pyrazol-4-yl)-4,5-dimethyl-5-(trifluoromethyl)tetrahydrofuran-2-carboxamide]: 7.00 to 8.00.

`COc1c([C@H]2[C@H](C(=O)Nc3ccnc(N4CCC(N(C)C)C4=O)c3)O[C@@](C)(C(F)(F)F)[C@H]2C)ccc(F)c1F` (single isomer, unassigned) [Compound 507, rel-(2R*,3S*,4S*,5R*)-3-(3,4-difluoro-2-methoxyphenyl)-N-(2-(3-(dimethylamino)-2-oxopyrrolidin-1-yl)pyridin-4-yl)-4,5-dimethyl-5-(trifluoromethyl)tetrahydrofuran-2-carboxamide]: the pIC50 was 7.00 to 8.00.

Turning to `C[C@H]1[C@@H](c2ccc(F)c(F)c2O[C@H]2C[C@@H](O)C2)[C@H](C(=O)Nc2cncc(F)c2)O[C@@]1(C)C(F)(F)F` [Compound 660, (2R,3S,4S,5R)-3-(3,4-difluoro-2-((1S,3R)-3-hydroxycyclobutoxy)phenyl)-N-(5-fluoropyridin-3-yl)-4,5-dimethyl-5-(trifluoromethyl)tetrahydrofuran-2-carboxamide], the pIC50 is 7.00 to 8.00. `Cc1nn(C(F)F)cc1NC(=O)[C@@H]1O[C@@](C)(C(F)(F)F)[C@@H](C)[C@H]1c1ccc(F)c(F)c1CCc1cn[nH]c1` [Compound 681, (2R,3S,4S,5R)-3-(2-(2-(1H-pyrazol-4-yl)ethyl)-3,4-difluorophenyl)-N-(1-(difluoromethyl)-3-methyl-1H-pyrazol-4-yl)-4,5-dimethyl-5-(trifluoromethyl)tetrahydrofuran-2-carboxamide]: the pIC50 was 7.00 to 8.00. On the same count and under the same terms, the same measure for `C[C@H]1[C@@H](c2ccc(F)c(F)c2OCCO)[C@H](C(=O)Nc2cc(C3CC3)n(C)n2)O[C@@]1(C)C(F)(F)F` [Compound 546, (2R,3S,4S,5R)-N-(5-cyclopropyl-1-methyl-1H-pyrazol-3-yl)-3-(3,4-difluoro-2-(2-hydroxyethoxy)phenyl)-4,5-dimethyl-5-(trifluoromethyl)tetrahydrofuran-2-carboxamide]: not above 6.00. Same read-out and setting: the result for `COCC(O)c1cc(NC(=O)[C@@H]2O[C@@](C)(C(F)(F)F)[C@@H](C)[C@H]2c2ccc(F)c(F)c2OCCN2CCOCC2)ccn1` (single isomer, unassigned) [Compound 595] reads 7.00 to 8.00; that for `COc1c([C@H]2[C@H](C(=O)Nc3ccnc(C(C)(O)CO)c3)O[C@@](C)(C(F)(F)F)[C@H]2C)ccc(F)c1F` (single isomer, unassigned) [Compound 202, rel-(2R*,3S*,4S*,5R*)-3-(3,4-difluoro-2-methoxyphenyl)-N-(2-(1,2-dihydroxypropan-2-yl)pyridin-4-yl)-4,5-dimethyl-5-(trifluoromethyl)tetrahydrofuran-2-carboxamide], more than 8.00. On to `CNC(CO)c1cc(NC(=O)[C@@H]2O[C@@](C)(C(F)(F)F)[C@@H](C)[C@H]2c2ccc(F)c(F)c2OC)ccn1` (single isomer, unassigned) [Compound 232], for which the pIC50 was more than 8.00.

Take `COc1c([C@H]2[C@H](C(=O)Nc3ccc(C(N)=O)nc3)O[C@@](C)(C(F)(F)F)[C@H]2C)ccc(OC(F)F)c1F` [Compound 682, 5-((2R,3S,4S,5R)-3-(4-(difluoromethoxy)-3-fluoro-2-methoxyphenyl)-4,5-dimethyl-5-(trifluoromethyl)tetrahydrofuran-2-carboxamido)picolinamide]: the pIC50 was more than 8.00.

`COc1c([C@H]2[C@H](C(=O)Nc3cc(C(O)CCO)ncc3F)O[C@@](C)(C(F)(F)F)[C@H]2C)ccc(F)c1F` (single isomer, unassigned) [Compound 256, rel-(2R*,3S*,4S*,5R*)-3-(3,4-difluoro-2-methoxyphenyl)-N-(2-(1,3-dihydroxypropyl)-5-fluoropyridin-4-yl)-4,5-dimethyl-5-(trifluoromethyl)tetrahydrofuran-2-carboxamide]: the pIC50 was more than 8.00.

`CCOc1c([C@@H]2[C@@H](C(=O)Nc3ccnc(S(C)(=O)=O)c3)O[C@](C)(C(F)(F)F)[C@@H]2C)ccc(F)c1F` (stereo in doubt) [Compound 4, rel-(2S,3R,4R,5S)-3-(2-ethoxy-3,4-difluorophenyl)-4,5-dimethyl-N-(2-(methylsulfonyl)pyridin-4-yl)-5-(trifluoromethyl)tetrahydrofuran-2-carboxamide]: the pIC50 is not above 6.00. On the same count and under the same terms, the result for `C[C@H]1[C@@H](c2ccc(F)c(F)c2OCC2COC2)[C@H](C(=O)Nc2cccnc2)O[C@@]1(C)C(F)(F)F` [Compound 578, (2R,3S,4S,5R)-3-(3,4-difluoro-2-(oxetan-3-ylmethoxy)phenyl)-4,5-dimethyl-N-(pyridin-3-yl)-5-(trifluoromethyl)tetrahydrofuran-2-carboxamide] reads 7.00 to 8.00; that for `COc1c([C@H]2[C@H](C(=O)NC(C)C(N)=O)O[C@@](C)(C(F)(F)F)[C@H]2C)ccc(F)c1F` (stereo partly drawn) [Compound 271, (2R,3S,4S,5R)-N-(1-amino-1-oxopropan-2-yl)-3-(3,4-difluoro-2-methoxyphenyl)-4,5-dimethyl-5-(trifluoromethyl)tetrahydrofuran-2-carboxamide], not above 6.00. For `COc1c([C@H]2[C@H](C(=O)NCC3(c4ccccc4)CC3)O[C@@](C)(C(F)(F)F)[C@H]2C)ccc(F)c1F` [Compound 305, (2R,3S,4S,5R)-3-(3,4-difluoro-2-methoxyphenyl)-4,5-dimethyl-N-((1-phenylcyclopropyl)methyl)-5-(trifluoromethyl)tetrahydrofuran-2-carboxamide], the negative-log IC50 (pIC50) was not above 6.00.
